Source: PubChem BioAssay AID1407 (Johns Hopkins Ion Channel Center, 2008)

Target: Potassium voltage-gated channel subfamily KQT member 2 (Rattus norvegicus) (UniProt O88943)
Assay: PubChem AID 1407
Settings: KCNQ2-expressing cells, rubidium efflux, at 10 µM, stronger effect = higher value

Chain of Potassium voltage-gated channel subfamily KQT member 2 (Rattus norvegicus) (O88943 whole entry, looked up): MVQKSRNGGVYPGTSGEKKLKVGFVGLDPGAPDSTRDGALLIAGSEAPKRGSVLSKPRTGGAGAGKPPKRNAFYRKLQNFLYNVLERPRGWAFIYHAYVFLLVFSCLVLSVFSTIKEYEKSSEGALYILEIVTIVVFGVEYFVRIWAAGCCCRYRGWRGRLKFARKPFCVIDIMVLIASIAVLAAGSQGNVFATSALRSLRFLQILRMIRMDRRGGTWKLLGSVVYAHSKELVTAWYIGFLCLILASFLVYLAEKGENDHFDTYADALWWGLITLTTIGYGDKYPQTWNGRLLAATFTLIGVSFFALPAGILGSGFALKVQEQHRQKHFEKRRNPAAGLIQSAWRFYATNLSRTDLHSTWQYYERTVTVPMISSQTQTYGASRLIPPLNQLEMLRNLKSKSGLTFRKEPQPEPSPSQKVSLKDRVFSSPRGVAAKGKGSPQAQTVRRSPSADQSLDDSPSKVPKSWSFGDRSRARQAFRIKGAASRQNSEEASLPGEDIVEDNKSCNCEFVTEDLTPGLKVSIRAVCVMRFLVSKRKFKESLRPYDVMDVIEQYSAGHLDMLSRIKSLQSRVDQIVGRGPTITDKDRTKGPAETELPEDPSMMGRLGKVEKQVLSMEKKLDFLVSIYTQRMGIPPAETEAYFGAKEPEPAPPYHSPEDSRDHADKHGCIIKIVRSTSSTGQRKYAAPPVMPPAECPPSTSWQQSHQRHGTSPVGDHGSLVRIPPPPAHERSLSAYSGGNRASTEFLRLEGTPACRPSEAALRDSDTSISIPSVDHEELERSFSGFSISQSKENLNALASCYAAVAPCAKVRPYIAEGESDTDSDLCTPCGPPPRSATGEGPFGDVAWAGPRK

activity increase: 23.1% | efflux (measured here: rubidium efflux percent): 85.5%
SMILES: O[N+]1=CC=CCC1=S.On1ccccc1=S.[Zn]
